Ends that are not written are not given here.
Experiments:
[1] = test system: autophagic flux in activated MRC-5 cells; test: Autophagic flux (LC3-II:LC3-I, p62 western blot; mRFP-GFP-LC3 live-cell imaging); format: cell-based, human; conditions: TGF-β1 10 ng/mL, peptide 50 µM, 24 h
Protocol: According to the manufacturer's instructions, MRC-5 cells were infected with mRFP-GFP-LC3 adenoviral particles. After infection, the cells were cultured for another 24 h and seeded on a CLSM dish at a density of 5 × 10^4 cells. After adherence, the cells were treated with 0 or 10 ng mL^-1 TGF-β1 for 24 h. On the other hand, in order to detect whether peptide could regulate the autophagic flux, the stable infected MRC-5 cells were seeded on a CLSM dish at a density of 5 × 10^4 cells. After adherence, the cells were treated with saline, Ac-GFFY-A2 (50 μM) or A2 (50 μM) plus TGF-β1 (10 ng mL^-1) for 24 h. The cells solely treated by saline as control group. Discarding the medium and washing the cells with cold PBS buffer. The autophagic flux was detected by Live Cell Imaging Microscopy (Leica TCS SP5). page 18: […] -3' and [NT]. […] The autophagic flux was detected by Live Cell Imaging Microscopy (Leica TCS SP5). […] The protein concentration was measured using BCA Protein Assay Kit (Thermo Scientific). […] The protein transferred PVDF membranes were incubated with following primary antibodies at 4°C overnight: Then the membranes were incubated with horseradish peroxidase (HRP)-conjugated secondary antibodies at room temperature for 1 h, and protein signals were detected using an enhanced chemiluminescence kit (Pierce). […] The co -precipitates were resolved using SDS-PAGE and detected with immunoblotting. […]

[2] = biological target: bovine serum albumin (BSA) (Bos taurus, UniProt P02769); test: Microscale thermophoresis (MST) binding to BSA (negative control protein); conditions: BSA as negative control
bovine serum albumin (BSA), sequence (P02769 25-607): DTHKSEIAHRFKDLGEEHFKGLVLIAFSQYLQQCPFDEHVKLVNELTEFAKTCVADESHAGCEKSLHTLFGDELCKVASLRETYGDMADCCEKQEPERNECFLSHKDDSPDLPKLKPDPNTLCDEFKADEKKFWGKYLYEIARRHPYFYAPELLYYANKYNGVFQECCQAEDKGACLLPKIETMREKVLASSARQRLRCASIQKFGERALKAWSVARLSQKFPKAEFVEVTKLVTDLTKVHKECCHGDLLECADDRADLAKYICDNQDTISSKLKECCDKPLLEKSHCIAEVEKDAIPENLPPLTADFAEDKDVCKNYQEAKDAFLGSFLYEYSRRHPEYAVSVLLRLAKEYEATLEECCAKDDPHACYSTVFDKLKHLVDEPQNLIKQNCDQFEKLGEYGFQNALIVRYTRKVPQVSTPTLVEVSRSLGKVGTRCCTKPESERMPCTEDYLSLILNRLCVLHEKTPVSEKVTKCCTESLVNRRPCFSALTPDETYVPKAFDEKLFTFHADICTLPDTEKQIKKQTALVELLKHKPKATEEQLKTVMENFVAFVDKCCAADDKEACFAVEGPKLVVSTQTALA
Protocol: To determine the effects of the self‐assembly factor “Ac‐GFFY” on the secondary structure of the A2 peptide fragment, Circular dichroism (CD) and Fourier transform infrared (FTIR) measurements were performed. […] We subsequently assessed the binding affinity between Ac‐GFFY‐A2 or A2 peptides to the human TRB3 protein or bovine serum albumin (BSA) using microscale thermophoresis (MST) assay, with BSA serving as the control group. […] Therefore, we labeled the peptide with the fluorescence group 7‐nitro‐1,2,3‐benzoxadiazole (NBD) to determine the cellular uptake via flow cytometer. The NBD‐labeled peptide was incubated with both of normal and activated MRC‐5 cells for 4 h, respectively. […] Collectively, under the action of supramolecular self‐assembly, the peptide assemblies with stable secondary conformation can not only be effectively absorbed by MRC‐5 cells but also have the potential to interfere with TRB3/p62 PPIs.
HR‐MS (Varian QFT‐ESI) was used to characterize the molecular weight of compounds. TEM (JEM100CXII) was performed at the Tecnai G2 F20 system, operating at 100 kV. Circular dichroism (CD) spectrum was obtained by a BioLogic (MOS‐450) system. Dynamic light scattering was measured by a ZETAPALS/BI‐200SM (BROOKHAVEN) system. Confocal laser scanning microscopy (CLSM) was measured by Leica TCS SP‐5. Flow cytometry (BD, FACS) was used to detect the cellular uptake. […]

Substance	autophagic flux [1]	binding with BSA [2]
Ac-GFFYGGWLTRLLQTK-OH [Ac-GFFY-A2]	restoration of autophagic flux	no binding
GGWLTRLLQTK-OH [A2, reference compound]	barely increased	no binding

Reference: publication PMC11267363, “Supramolecular Nanofibers Ameliorate Bleomycin‐Induced Pulmonary Fibrosis by Restoring Autophagy” (Advanced Science, 2024)
